Assay results published in patent publication US12522575B2, “2-diarylmethyl-4-aminotetrahydropyran derivatives and related compounds as anticancer, antiinflammatory, antifibrotic and neuroprotective agents” (Atux Iskay LLC, priority 2021, dated 2026).

Tested on: D425 medulloblastoma cells
Experiment: D425 cell viability / proliferation (CellTiter-Glo)
Type: cell-based
Settings: @ 30 μM, 48 hours
Procedure: D425 medulloblastoma cells were purchased from SigmaAldrich. D425 meduloblastoma cells were cultured in improved Dulbecco's modified Eagle's medium (DMEM) Richter's modification supplemented with 20% fetal bovine serum and 1% Penicillin-streptomycin. Incubation was performed at 37° C. and 5% CO2.
D425 cells were seeded at 3000-3500 cells/90 ul growth medium per well on 96-well tissue culture plates. Cells were incubated overnight to allow them to recover. Next day cells were treated with tested compounds and incubated for 48 hours.
Cell Proliferation assays in triplicate were performed at each concentration. Compounds test range was 1-30 μM (0, 5, 10, 15, 20, 25, and 30). The compounds were dissolved in DMSO. A series of dilutions were made in 1% DMSO in growth medium so that the final concentration of DMSO is 0.1% in all of treatments.
After treatment, cells were allowed to equilibrate at room temperature for one hour. Cell proliferation was measured by Luminescence quantification using Promega CellTiter-Glo Luminescent Cell Viability Assay. To perform the assay, 90 ul of Celltiter-Glo substrate was added to each well, plates were shake for 2 minutes and allowed to equilibrate for 10 minutes at room temperature. Luminescence intensity was measured using the Spectramax i3x plate reader.
(§1) The Luminescence intensity data were analyzed using the computer software Graphpad Prism. In the absence of the compound, the luminescence intensity (Lt) in each data set was defined as 100% cell viability. The percent cell in the presence of each compound was calculated according to the following equation: % Cell=L/Lt, were L=the luminescence intensity in the presence of the compound.
The values of % cell versus a series of compound concentrations (0, 5, 10, 15, 20, 25, and 30 μM) were then plotted using Nonlinear regression analysis of Sigmoidal dose-response curve. IC50 value was determined by the concentration causing a half-maximal percent activity.

With `O=C(NC1CCOC(C2c3ccccc3CCc3ccccc32)C1)c1ccc(OC(F)(F)F)cc1` (stereo not drawn) [Example 14, N-(2-(10,11-dihydro-5H-dibenzo[a,d][7]annulen-5-yl)tetrahydro-2H-pyran-4-yl)-4-(trifluoromethoxy)benzamide] the “D425 cell growth, effect at single concentration” value was about 50% @ 30 μM.

Same assay, conditions: Medulloblastoma cell; 48 hours treatment, CellTiter-Glo; read-out: IC50 for D425 cell growth

In order of rising IC50:
1. O=S(=O)(NC1CCOC(C2c3ccccc3CCc3ccccc32)C1)c1cccc(C(F)(F)F)c1 (stereo not drawn) [Example 13, N-(2-(10,11-dihydro-5H-dibenzo[a,d][7]annulen-5-yl)tetrahydro-2H-pyran-4-yl)-3-(trifluoromethyl)benzenesulfonamide]  5.1 µM
2. O=S(=O)(N[C@H]1CCO[C@@H](C2c3ccccc3CCc3ccccc32)C1)c1ccc(OC(F)(F)F)cc1 (single isomer, unassigned) [Example 7]  5.3 µM
3. O=S(=O)(NC1CCOC(C2c3ccccc3CCc3ccccc32)C1)c1ccc(C(F)(F)F)cc1 (stereo not drawn) [Example 10, N-(2-(10,11-dihydro-5H-dibenzo[a,d][7]annulen-5-yl)tetrahydro-2H-pyran-4-yl)-4-(trifluoromethyl)benzenesulfonamide]  6 µM
4. O=S(=O)(NC1CCOC(C2c3ccccc3CCc3ccccc32)C1)c1ccc(Br)cc1 (stereo not drawn) [Example 12, 4-bromo-N-(2-(10,11-dihydro-5H-dibenzo[a,d][7]annulen-5-yl)tetrahydro-2H-pyran-4-yl)benzenesulfonamide]  6.2 µM
5. O=S(=O)(NC1CCOC(C2c3ccccc3CCc3ccccc32)C1)c1ccc(Cl)cc1 (stereo not drawn) [Example 9, 4-chloro-N-(2-(10,11-dihydro-5H-dibenzo[a,d][7]annulen-5-yl)tetrahydro-2H-pyran-4-yl)benzenesulfonamide]  6.6 µM
6. O=S(=O)(NC1CCOC(C(c2ccc(F)cc2)c2ccc(F)cc2)C1)c1ccc(OC(F)(F)F)cc1 (stereo not drawn) [Example 16, N-(2-(bis(4-fluorophenyl)methyl)tetrahydro-2H-pyran-4-yl)-4-(trifluoromethoxy)benzenesulfonamide]  7.3 µM
7. Cc1ccc(S(=O)(=O)NC2CCOC(C3c4ccccc4CCc4ccccc43)C2)cc1 (stereo not drawn) [Example 11, N-(2-(10,11-dihydro-5H-dibenzo[a,d][7]annulen-5-yl)tetrahydro-2H-pyran-4-yl)-4-meth ylbenzenesulfonamide]  9.5 µM
8. O=S(=O)(NC1CCOC(C2c3ccccc3CCc3ccccc32)C1)c1ccc(OC(F)(F)F)cc1 (racemic) [Example 2, N-(2-(10,11-dihydro-5H-dibenzo[a,d][7]annulen-5-yl)tetrahydro-2H-pyran-4-yl)-4-(trifluoromethoxy)benzenesulfonamide]  10.3 µM
9. O=S(=O)(NC1CCOC(C(c2ccccc2)c2ccccc2)C1)c1ccc(OC(F)(F)F)cc1 (stereo not drawn) [Example 15, N-(2-benzhydryltetrahydro-2H-pyran-4-yl)-4-(trifluoromethoxy)benzenesulfonamide]  11.2 µM

Tested on: A172 glioblastoma cells
Experiment: A172 cell viability / proliferation (CellTiter-Glo)
Type: cell-based
Settings: Homo sapiens, A 172, 48-72 hours treatment, read-out: IC50 for A172 cell growth
Procedure: (§2) A172 glioblastoma cells were cultured in Dulbecco's modified Eagle's medium (DMEM) supplemented with 10% fetal bovine serum and 1% Penicillin-streptomycin. Incubation was performed at 37° C. and 5% CO2.
A172 cells were seeded at 3000-3500 cells/90 μL growth medium per well on 96-well tissue culture plates. Cells were incubated overnight to allow them to recover and reattach. Next day cells were treated with tested compounds and incubated for 48-72 hours.
Cell Proliferation assays in triplicate were performed at each concentration. Compounds test range was 1-30 µM (0, 5, 10, 15, 20, 25, and 30). The compounds were dissolved in DMSO. […]
After treatment, cells were allowed to equilibrate at room temperature for 1/2 to one hour. Cell proliferation was measured by Luminescence quantification using Promega CellTiter-Glo Luminescent Cell Viability Assay. […] Luminescence intensity was measured using the Spectramax i3× plate reader.
as §1, with “compound. […]” for “compound.”

Molecule `O=S(=O)(NC1CCOC(C2c3ccccc3CCc3ccccc32)C1)c1ccc(OC(F)(F)F)cc1` (racemic) [Example 2, N-(2-(10,11-dihydro-5H-dibenzo[a,d][7]annulen-5-yl)tetrahydro-2H-pyran-4-yl)-4-(trifluoromethoxy)benzenesulfonamide] has an IC50 of 14.7 µM.

Tested on: phosphatase activity in ApoE transfected A172 glioblastoma cells
Experiment: Cellular in vitro phosphatase activation assay (Malachite Green) in ApoE transfected A172 cells
Type: cell-based
Settings: 24 hours
Procedure: Cellular in vitro phosphatase activation assay was performed using the method of Theendakara et al, Molecular and Cellular Neuroscience, 83 (2017), pages 83-91 which is described below:
as §2
A172 cells were seeded at 5×10^5 cells/2.5 ml growth medium (without antibiotics) per well on 6-well tissue culture plates. Cells were incubated overnight to allow them to recover and reattach. […]
After 24 hrs, cells were washed twice with imidazole buffer and lysed using NP-40 Lysis buffer. […] The amount of phosphate release in the assay was determined by measuring absorbance at 620 nm using the Spectramax i3x plate reader.
The absorbance intensity data were analyzed using the computer software Graphpad Prism. The phosphate concentration for each sample was determined from the standard curve using phosphate standard concentrations. In order to compare samples, the first set (column A) were there was no transfection performed and no compound added, was designated a baseline; the absorbance measurement in this column was set as 100% phosphatase activity.

In the case of `O=S(=O)(NC1CCOC(C2c3ccccc3CCc3ccccc32)C1)c1ccc(OC(F)(F)F)cc1` (racemic) [Example 2, N-(2-(10,11-dihydro-5H-dibenzo[a,d][7]annulen-5-yl)tetrahydro-2H-pyran-4-yl)-4-(trifluoromethoxy)benzenesulfonamide], the “% increase from ApoE transfected cell at 5 μM test compound concentration” value is reported as 7.2%.
